The values that follow come from paper PMC10269871, “Small Molecule Inhibition of an Exopolysaccharide Modification Enzyme is a Viable Strategy To Block Pseudomonas aeruginosa Pel Biofilm Formation” (Microbiology Spectrum, 2023).

What is called Ki is the dissociation constant of the complex between target and ligand, obtained from inhibition or displacement.

The assay concerns the target T1, PelA (Pseudomonas aeruginosa, UniProt Q9HZE4).
T1 construct: PelAΔ46Chis6, residues 47 to 948, C-terminal His6
The assay can be described thus: fluorogenic AMMU esterase assay with purified PelA, Michaelis-Menten global noncompetitive fit (IC50 […]); reversible by gel filtration. It is filed as biochemical. For orientation: In gel filtration, larger molecules generally elute earlier.

T1 sequence (Q9HZE4 entry or part of it): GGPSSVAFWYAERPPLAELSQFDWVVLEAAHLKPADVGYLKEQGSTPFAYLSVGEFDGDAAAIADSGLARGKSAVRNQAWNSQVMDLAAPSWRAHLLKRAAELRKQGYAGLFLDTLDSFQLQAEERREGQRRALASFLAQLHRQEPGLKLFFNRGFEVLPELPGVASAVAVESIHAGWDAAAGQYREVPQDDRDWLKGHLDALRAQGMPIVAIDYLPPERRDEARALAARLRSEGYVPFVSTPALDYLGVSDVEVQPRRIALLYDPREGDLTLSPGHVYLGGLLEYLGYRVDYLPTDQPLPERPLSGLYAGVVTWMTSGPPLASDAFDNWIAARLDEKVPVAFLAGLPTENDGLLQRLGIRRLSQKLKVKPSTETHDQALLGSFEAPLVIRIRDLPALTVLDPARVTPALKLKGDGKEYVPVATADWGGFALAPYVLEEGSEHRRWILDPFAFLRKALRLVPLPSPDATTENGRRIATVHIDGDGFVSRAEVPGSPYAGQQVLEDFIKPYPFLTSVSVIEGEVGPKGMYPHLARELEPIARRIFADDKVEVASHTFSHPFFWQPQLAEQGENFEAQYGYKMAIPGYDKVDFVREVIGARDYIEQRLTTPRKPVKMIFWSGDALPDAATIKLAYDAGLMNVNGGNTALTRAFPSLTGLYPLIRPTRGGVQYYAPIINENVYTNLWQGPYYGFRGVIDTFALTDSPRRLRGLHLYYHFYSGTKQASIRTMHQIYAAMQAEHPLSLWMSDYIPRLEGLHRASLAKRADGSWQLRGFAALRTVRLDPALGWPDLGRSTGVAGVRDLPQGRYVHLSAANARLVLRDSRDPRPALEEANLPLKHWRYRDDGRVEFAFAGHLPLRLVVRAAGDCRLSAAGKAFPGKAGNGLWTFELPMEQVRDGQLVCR

`CSC(=S)N/N=C/c1ccccn1` [SK-017154-O, methyl 2-(2-pyridinylmethylene) hydrazinecarbodithioate] showed a Ki of 1130 ± 30 nM.
